The source made the active and inactive calls. Rule as the data show it, for most assays here: actives have a measured IC50 and inactives only a lower limit. Where only a bound is given, the exact number is not on record here.

Common to all, as to type: functional
The target of assay [1] is T1, Bcl-2-related protein A1 (Mus musculus, UniProt Q07440).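 Also: confirmatory dose–response counterscreen on Bfl-1, used to check hits from a UBC13 polyubiquitin inhibitor campaign.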
T1 sequence (Q07440 whole entry): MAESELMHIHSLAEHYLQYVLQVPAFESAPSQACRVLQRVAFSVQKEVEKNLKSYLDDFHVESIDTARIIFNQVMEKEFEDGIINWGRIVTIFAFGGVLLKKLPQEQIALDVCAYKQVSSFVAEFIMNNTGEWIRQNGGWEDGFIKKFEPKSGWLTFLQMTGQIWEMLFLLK

The target in assay [2] is T2, Alkaline phosphatase, tissue-nonspecific isozyme (Homo sapiens, UniProt P05186).
T2 sequence (P05186 whole entry): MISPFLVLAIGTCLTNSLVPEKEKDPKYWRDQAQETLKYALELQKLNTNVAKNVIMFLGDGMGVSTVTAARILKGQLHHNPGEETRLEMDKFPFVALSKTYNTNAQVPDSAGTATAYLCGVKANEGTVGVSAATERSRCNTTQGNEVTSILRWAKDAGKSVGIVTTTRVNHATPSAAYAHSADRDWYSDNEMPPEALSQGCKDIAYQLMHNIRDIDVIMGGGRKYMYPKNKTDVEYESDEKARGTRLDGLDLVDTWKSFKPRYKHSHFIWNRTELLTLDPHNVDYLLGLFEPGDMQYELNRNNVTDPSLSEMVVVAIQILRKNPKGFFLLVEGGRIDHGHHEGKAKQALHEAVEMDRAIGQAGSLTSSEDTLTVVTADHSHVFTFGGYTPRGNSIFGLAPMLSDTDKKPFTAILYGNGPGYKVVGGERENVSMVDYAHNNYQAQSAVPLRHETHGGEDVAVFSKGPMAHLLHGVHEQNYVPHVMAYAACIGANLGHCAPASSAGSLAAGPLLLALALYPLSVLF
Briefly: TNAP enzyme inhibition by screening hits, dose response, selectivity assay for mouse IAP inhibitor project, biochemical, human TNAP, uHTS hits (AID 488906).

For assay [3], the target named is Intestinal-type alkaline phosphatase (Homo sapiens, UniProt P09923). Nature of the assay: inhibition of human intestinal alkaline phosphatase – biochemical, dose response (AID 488876).
In assay [4] the target is 5-hydroxytryptamine receptor 5A (Homo sapiens, UniProt P47898). Briefly: Counterscreen for agonists of OPRM1-OPRD1 heterodimerization: luminescence-based cell-based high throughput dose response assay to identify agonists of 5-hydroxytryptamine (serotonin) 5A receptor (HTR5A). [Related pubchem assays (depositor defined):AID504326, AID504355, AID504692, AID504904, AID504905]. In general terms: Counterscreens check selectivity or assay interference.

For assay [5], the target named is T3, Ubiquitin-conjugating enzyme E2 N (Homo sapiens, UniProt P61088).
T3 sequence (P61088 whole entry): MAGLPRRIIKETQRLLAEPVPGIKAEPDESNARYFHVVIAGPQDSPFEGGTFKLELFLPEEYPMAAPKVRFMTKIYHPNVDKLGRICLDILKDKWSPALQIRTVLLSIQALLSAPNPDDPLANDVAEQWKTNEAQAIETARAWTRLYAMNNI

Assay [6] deals with T4, Apoptotic protease-activating factor 1 (Homo sapiens, UniProt O14727).
T4 sequence (O14727 whole entry): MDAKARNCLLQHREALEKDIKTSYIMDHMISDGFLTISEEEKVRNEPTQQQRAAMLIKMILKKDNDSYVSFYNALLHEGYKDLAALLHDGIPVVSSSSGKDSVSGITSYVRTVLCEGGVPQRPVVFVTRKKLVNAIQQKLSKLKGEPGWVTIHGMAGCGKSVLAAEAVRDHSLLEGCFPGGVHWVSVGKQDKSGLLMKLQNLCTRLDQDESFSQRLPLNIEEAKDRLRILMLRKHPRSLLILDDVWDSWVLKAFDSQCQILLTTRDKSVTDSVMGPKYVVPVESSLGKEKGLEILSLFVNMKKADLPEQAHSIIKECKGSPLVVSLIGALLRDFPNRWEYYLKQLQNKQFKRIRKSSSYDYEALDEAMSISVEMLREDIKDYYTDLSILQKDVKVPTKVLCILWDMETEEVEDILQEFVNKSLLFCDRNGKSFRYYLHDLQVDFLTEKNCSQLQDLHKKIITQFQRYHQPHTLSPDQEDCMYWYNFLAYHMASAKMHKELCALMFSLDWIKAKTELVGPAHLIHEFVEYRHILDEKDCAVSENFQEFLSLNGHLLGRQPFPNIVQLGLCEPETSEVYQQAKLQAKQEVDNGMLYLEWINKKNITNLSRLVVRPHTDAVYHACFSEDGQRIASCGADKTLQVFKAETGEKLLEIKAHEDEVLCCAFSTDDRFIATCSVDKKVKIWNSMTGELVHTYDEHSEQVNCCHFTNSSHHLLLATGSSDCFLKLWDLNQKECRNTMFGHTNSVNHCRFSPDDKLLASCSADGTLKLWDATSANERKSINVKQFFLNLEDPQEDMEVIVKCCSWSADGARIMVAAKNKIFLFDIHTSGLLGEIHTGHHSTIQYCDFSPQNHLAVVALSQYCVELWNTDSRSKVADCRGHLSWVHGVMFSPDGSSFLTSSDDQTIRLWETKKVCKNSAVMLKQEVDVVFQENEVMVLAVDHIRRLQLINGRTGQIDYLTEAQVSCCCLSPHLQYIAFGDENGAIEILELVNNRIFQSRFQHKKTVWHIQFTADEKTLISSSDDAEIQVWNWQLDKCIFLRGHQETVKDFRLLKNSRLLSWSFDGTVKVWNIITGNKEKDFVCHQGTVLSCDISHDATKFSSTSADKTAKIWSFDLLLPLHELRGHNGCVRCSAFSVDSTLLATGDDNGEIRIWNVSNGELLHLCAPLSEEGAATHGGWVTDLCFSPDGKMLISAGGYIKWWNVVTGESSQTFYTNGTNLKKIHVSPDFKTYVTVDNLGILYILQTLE

Assay [7] concerns the target T3, Ubiquitin-conjugating enzyme E2 N. This is another data set of the same source.
In assay [8] the target is T5, Small ubiquitin-related modifier 1 (Homo sapiens, UniProt P63165). Nature of the assay: inhibitors of SUMO1 partner interactions, dose response, biochemical, FRET (AID 624383). As to conditions: read-out: IC50_Mean.
The target in assay [9] is Mu-type opioid receptor (Homo sapiens, UniProt P35372). Nature of the assay: Counterscreen for agonists of heterodimerization of the mu 1 (OPRM1) and delta 1 (OPRD1) opioid receptors: Luminescence-based cell-based high throughput dose response assay to identify agonists of OPRM1 homodimerization.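 Also: U2OS cells expressing OPRM1 and beta-arrestin as split beta-galactosidase partners.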
For assay [10], the target named is T5, Small ubiquitin-related modifier 1. Briefly: inhibitors of SUMO1 peptide binding, dose response, biochemical, fluorescence polarization, uHTS hits (AID 624382). The settings on record: read-out: IC50_Mean.

T5 sequence (P63165 whole entry): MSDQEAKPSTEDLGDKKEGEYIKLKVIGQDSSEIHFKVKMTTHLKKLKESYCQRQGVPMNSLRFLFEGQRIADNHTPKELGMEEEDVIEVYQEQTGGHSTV
Sequence of 5-hydroxytryptamine receptor 5A (P47898 whole entry): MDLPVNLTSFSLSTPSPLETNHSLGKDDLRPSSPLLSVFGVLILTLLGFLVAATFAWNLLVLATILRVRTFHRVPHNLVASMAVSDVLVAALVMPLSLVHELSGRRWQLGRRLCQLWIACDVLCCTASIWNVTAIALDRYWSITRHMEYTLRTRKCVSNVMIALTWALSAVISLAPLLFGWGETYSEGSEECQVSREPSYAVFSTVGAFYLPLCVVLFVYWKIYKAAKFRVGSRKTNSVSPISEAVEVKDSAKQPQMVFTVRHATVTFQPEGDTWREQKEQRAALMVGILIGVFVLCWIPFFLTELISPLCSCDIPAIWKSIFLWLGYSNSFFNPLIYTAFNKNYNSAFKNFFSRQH
Sequence of Mu-type opioid receptor (P35372 whole entry): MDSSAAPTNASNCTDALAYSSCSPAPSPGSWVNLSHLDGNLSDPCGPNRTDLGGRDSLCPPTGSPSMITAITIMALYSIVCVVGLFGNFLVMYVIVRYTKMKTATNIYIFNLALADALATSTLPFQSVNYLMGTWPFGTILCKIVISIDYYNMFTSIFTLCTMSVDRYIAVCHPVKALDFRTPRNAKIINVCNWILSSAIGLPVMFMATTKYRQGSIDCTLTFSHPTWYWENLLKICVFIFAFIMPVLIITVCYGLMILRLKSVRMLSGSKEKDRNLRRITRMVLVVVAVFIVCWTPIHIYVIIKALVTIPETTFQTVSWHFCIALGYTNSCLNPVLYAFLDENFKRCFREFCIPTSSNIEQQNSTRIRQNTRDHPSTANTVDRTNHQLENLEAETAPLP
Sequence of Intestinal-type alkaline phosphatase (P09923 whole entry): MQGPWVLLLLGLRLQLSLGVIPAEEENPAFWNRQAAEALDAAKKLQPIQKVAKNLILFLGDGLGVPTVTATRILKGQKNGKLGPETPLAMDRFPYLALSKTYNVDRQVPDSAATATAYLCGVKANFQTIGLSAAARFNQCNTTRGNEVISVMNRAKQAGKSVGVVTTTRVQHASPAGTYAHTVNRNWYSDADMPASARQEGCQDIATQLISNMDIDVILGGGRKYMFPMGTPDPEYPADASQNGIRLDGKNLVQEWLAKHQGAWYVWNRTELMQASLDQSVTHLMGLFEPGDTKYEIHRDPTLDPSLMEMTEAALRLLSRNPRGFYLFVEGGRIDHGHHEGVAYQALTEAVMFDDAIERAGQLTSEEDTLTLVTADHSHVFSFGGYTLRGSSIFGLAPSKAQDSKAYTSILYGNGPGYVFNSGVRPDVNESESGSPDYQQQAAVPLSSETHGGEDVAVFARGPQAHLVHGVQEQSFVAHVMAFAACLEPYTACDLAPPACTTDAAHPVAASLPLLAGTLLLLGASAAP

In general, EC50 refers to the concentration needed to bring the measured effect to its halfway point. Take `Clc1ccc(C(c2ccc(Cl)cc2)n2cc[n+](CC(OCc3ccc(Cl)cc3Cl)c3ccc(Cl)cc3Cl)c2)cc1` (stereo not given) [CALMIDAZOLIUM CHLORIDE]: the IC50 in assay [1] was 6.23 µM (active); in assay [2], > 100 µM (inactive); in assay [3] it was > 100 µM (inactive); in assay [5], 10.9 µM (active); in assay [6] it was 12.7 µM (active); in assay [7], 5.6 µM (active). The IC50 in assay [8] was 5.89 µM (active); in assay [10], > 66.6 µM (inactive). In addition, the EC50 in assay [4] and in [9] was > 92.5 µM (inactive) in each case.

The values are drawn from ChEMBL document CHEMBL1201862, “PubChem BioAssay data set” (2004).
